Experimental data as given in PMC7006622 (2019).

Key:
[1] = system: TWJ molecular switch for ATP (B3/G12 split aptamer, with FP1 and CP1) (DNA, aptamer) TGGGATTGGAAGGAGGCGTCCGTACTCTATGAGCCTCTG/TATGAGGGGGTCCACCGTGT/AAACACGGATCCCATA; assay: single-molecule TIRF, transient binding of fluorescent probe; details: 1× PBS; qualitative; oxygen scavenger system; surface-immobilised DNA
[2] = system: TWJ molecular switch for 17β-estradiol (B5/G14 split aptamer, with FP1 and CP1) (DNA, aptamer) TAGGGTGCGGCTCTGCGCATTCAATTGCTGCGCGCTGAAGCGCGGAAGCCCGTACTCTATGAGCCTCTG/GCTTCCAGCTTATTGAATTACACGCAGAGGGTACCGTGT/AAACACGGATCCCATA; assay: single-molecule TIRF, fluorescent probe binding kinetics; details: 1× PBS; apparent; read from calibration curve of probe kon,F and koff,F against Kd; oxygen scavenger system; surface-immobilised DNA

binding [1] | Kd [2] [nM] | Compound
yes | – | Nc1ncnc2c1ncn2[C@@H]1O[C@H](COP(=O)(O)OP(=O)(O)OP(=O)(O)O)[C@@H](O)[C@H]1O
– | 18 | C[C@]12CC[C@@H]3c4ccc(O)cc4CC[C@H]3[C@@H]1CC[C@@H]2O
